The text below walks through data of ChEMBL document CHEMBL4373746, “Structural attributes influencing unbound tissue distribution” (Eur J Med Chem, 2020).

A short description of data set [1]: Drug concentration in total skeletal muscle in Wistar Han rat at 1 to 2 mg/kg, iv infused for 10 to 20 hrs by LC-MS/MS analysis. As to conditions: in vivo.
The nature of data set [2]: Total plasma concentration in Wistar Han rat at 1 to 2 mg/kg, iv infused for 10 to 20 hrs by LC-MS/MS analysis. Particulars: in vivo.
Data set [3] is described as follows: Unbound tissue partition coefficient, ratio of drug level in skeletal muscle to plasma in Wistar Han rat at 1 to 2 mg/kg, iv infused for 10 to 20 hrs by LC-MS/MS analysis. As to conditions: skeletal muscle/plasma.
Data set [4] in a line: Unbound tissue partition coefficient, ratio of drug level in adipose to plasma in Wistar Han rat at 1 to 2 mg/kg, iv infused for 10 to 20 hrs by LC-MS/MS analysis. As to conditions: adipose/plasma.
The nature of data set [5]: Drug concentration in total brain in Wistar Han rat at 1 to 2 mg/kg, iv infused for 10 to 20 hrs by LC-MS/MS analysis. As to conditions: in vivo.
The nature of data set [6]: Drug concentration in total white adipose tissue in Wistar Han rat at 1 to 2 mg/kg, iv infused for 10 to 20 hrs by LC-MS/MS analysis. As to conditions: in vivo.
The nature of data set [7]: Unbound tissue partition coefficient, ratio of drug level in brain to plasma in Wistar Han rat at 1 to 2 mg/kg, iv infused for 10 to 20 hrs by LC-MS/MS analysis. Particulars: brain/plasma.
Data set [8] can be described thus: Unbound tissue partition coefficient, ratio of drug level in heart to plasma in Wistar Han rat at 1 to 2 mg/kg, iv infused for 10 to 20 hrs by LC-MS/MS analysis. As to conditions: heart/plasma.
Data set [9] is described as follows: Drug concentration in total liver in Wistar Han rat at 1 to 2 mg/kg, iv infused for 10 to 20 hrs by LC-MS/MS analysis. Particulars: in vivo.
Data set [10] can be described thus: Drug concentration in total heart in Wistar Han rat at 1 to 2 mg/kg, iv infused for 10 to 20 hrs by LC-MS/MS analysis. As to conditions: in vivo.
A short description of data set [11]: Unbound tissue partition coefficient, ratio of drug level in liver to plasma in Wistar Han rat at 1 to 2 mg/kg, iv infused for 10 to 20 hrs by LC-MS/MS analysis. Particulars: liver/plasma.
A short description of data set [12]: Apparent permeability of the compound across dog RRCK cells by MDCK-LE assay.
Data set [13] in a line: Fraction unbound in Wistar Han rat skeletal muscle at 2 uM incubated for 6 hrs by equilibrium dialysis method. In general terms: Equilibrium dialysis compares concentrations on both sides of a semipermeable membrane.
Data set [14] in a line: Fraction unbound in Wistar Han rat liver at 2 uM incubated for 6 hrs by equilibrium dialysis method.
The nature of data set [15]: Fraction unbound in Wistar Han rat plasma at 2 uM incubated for 6 hrs by equilibrium dialysis method.
Data set [16] is described as follows: Fraction unbound in Wistar Han rat heart at 2 uM incubated for 6 hrs by equilibrium dialysis method.
The nature of data set [17]: Fraction unbound in Wistar Han rat brain at 2 uM incubated for 6 hrs by equilibrium dialysis method.
Data set [18] is described as follows: Fraction unbound in Wistar Han rat white adipose tissue at 2 uM incubated for 6 hrs by equilibrium dialysis method.

As for `O=C(O)C(=O)Nc1ccc(NC(=O)[C@H](CC2CCCC2)n2cnc(C(F)(F)F)c2)nc1`, the Ct is 0.9 ng/mL in data set [1]; 0.38 ng/mL in [5]; 0.77 ng/mL in data set [6]; 300 ng/mL in [9]; 20 ng/mL in data set [10]. The compound also displayed a Cp in [2] of 110 ng/mL. Also, the Kp uu in [3] came out at 0.02; in data set [4] it was 0.024; in data set [7], 0.0018; in data set [8] it was 0.75; in data set [11], 7.2.
As a reminder, the Papp is a coefficient for how fast a substance crosses the barrier. The fraction unbound is the share of the substance not bound to proteins or other matrix. High values mean much free substance, low ones little free substance. For the compound `O=C(NC1CCCC1)C1CCN(c2nc3cc(Cl)ccc3o2)CC1`, the Ct in data set [1] was determined as 59 ng/mL; in data set [5], 88 ng/mL; in data set [6], 330 ng/mL; in [9] it was 210 ng/mL; in [10], 150 ng/mL. In addition, the Papp in data set [12] was 35 ×10⁻⁶ cm/s. In data set [2], the Cp stood at 310 ng/mL. The Kp uu in [3] came to 0.61; in [4] it was 3.9; in data set [7], 0.64; in data set [8] it was 2.2; in data set [11] it was 4.3. The unbound share (fraction unbound) at 6 h, 2 µM came to 0.02 in data set [13]; 0.0414 in [14]; 0.00646 in data set [15]; 0.0292 in data set [16]; 0.0144 in data set [17]; 0.0248 in data set [18].
Regarding `Cc1nc([C@@H]2CCOC2)c2c(N3CCc4c(c(C5CC5)nn4C)C3)ncnn12`, the Ct in [1] is 75 ng/mL; in data set [5], 52 ng/mL; in data set [6], 270 ng/mL; in data set [9], 380 ng/mL; in [10] it was 110 ng/mL. In data set [12], the Papp was found to be 30 ×10⁻⁶ cm/s. The compound also came in with a Cp in data set [2] of 66 ng/mL. The Kp uu in [3] worked out at 1.5; in data set [4] it was 2.3; in [7], 0.46; in data set [8] it was 1.7; in [11], 6.2. For the same compound, the fraction unbound at 6 h, 2 µM in [13] worked out at 0.23; in data set [14], 0.195; in data set [15] it was 0.178; in data set [16] it was 0.171; in data set [17], 0.103; in [18] it was 0.101.
With `Nc1noc2ccc(-c3cc(Cl)ccc3Oc3cc(F)c(S(=O)(=O)Nc4cscn4)cc3F)cc12`, the Ct in data set [1] is 18 ng/mL; in data set [5], 0.38 ng/mL; in data set [6] it was 11 ng/mL; in data set [9], 1.4 ng/mL; in data set [10] it was 54 ng/mL. Besides, the Papp in [12] is 3.8 ×10⁻⁶ cm/s. In data set [2], the Cp was 36 ng/mL. The Kp uu in data set [3] was found to be 0.54; in data set [4] it was 2.4; in data set [7], 0.0018; in [8] it was 0.9; in [11], 0.033. The fraction unbound at 6 h, 2 µM in data set [13] amounted to 0.00165; in [14], 0.00176; in data set [15] it was 0.00155; in [16], 0.000968; in data set [17] it was 0.00141; in data set [18], 0.0123.
In the case of `CC1(OC(=O)N2CCC(n3ncc(COc4ccc(C(N)=O)cc4F)c3C#N)CC2)CC1`, the Ct in data set [1] turned out to be 100 ng/mL; in data set [5], 40 ng/mL; in [6], 73 ng/mL; in data set [9], 520 ng/mL; in data set [10] it was 220 ng/mL. Besides, the Papp in [12] came out at 26 ×10⁻⁶ cm/s. The compound further registered a Cp in data set [2] of 150 ng/mL. For the same compound, the Kp uu in data set [3] worked out at 1; in [4] it was 1.6; in data set [7], 0.24; in data set [8], 2.8; in [11], 4.7. The fraction unbound at 6 h, 2 µM is 0.0634 in data set [13]; 0.0561 in data set [14]; 0.044 in data set [15]; 0.0693 in [16]; 0.0366 in data set [17]; 0.137 in data set [18].
Take `COc1cc2c(OC[C@H]3NC(=O)[C@@H]4C[C@]34C)nccc2cc1C(N)=O`: the Ct in data set [1] amounted to 67 ng/mL; in data set [5], 3.7 ng/mL; in data set [6], 16 ng/mL; in data set [9], 1000 ng/mL; in data set [10], 100 ng/mL. Moreover, the apparent permeability coefficient (Papp) in [12] was determined as 19 ×10⁻⁶ cm/s. The Cp in [2] came to 110 ng/mL. Also, the Kp uu in [3] was determined as 0.8; in data set [4], 0.38; in [7], 0.032; in data set [8], 1.2; in data set [11], 11. The fraction unbound at 6 h, 2 µM in [13] was 0.403; in data set [14] it was 0.368; in data set [15], 0.298; in [16], 0.399; in [17], 0.294; in [18], 0.803.
As for `CC(C)n1ncc2c1C(=O)CC1(CCN(C(=O)c3ccc4[nH]nc(C(N)=O)c4c3)CC1)C2`, the Ct was 30 ng/mL in [1]; 0.38 ng/mL in [5]; 17 ng/mL in [6]; 500 ng/mL in [9]; 62 ng/mL in data set [10]. For the same compound, in [12], the Papp stood at 3.6 ×10⁻⁶ cm/s. In data set [2], this compound had a Cp of 65 ng/mL. In addition, the Kp uu is 0.76 in data set [3]; 0.98 in [4]; 0.0018 in data set [7]; 1.1 in data set [8]; 7.9 in data set [11]. Moreover, the fraction unbound at 6 h, 2 µM in [13] stood at 0.172; in data set [14], 0.108; in data set [15], 0.119; in data set [16], 0.121; in [17], 0.0763; in data set [18], 0.398.
Regarding `O=c1[nH]c(=S)n(CCO)c2cc[nH]c12`, the Ct was 38 ng/mL in data set [1]; 3.7 ng/mL in data set [5]; 0.86 ng/mL in [6]; 70 ng/mL in [9]; 45 ng/mL in data set [10]. Besides, in [12], the Papp was determined as 1.7 ×10⁻⁶ cm/s. The Cp in data set [2] worked out at 32 ng/mL. Also, the Kp uu in [3] was found to be 0.41; in data set [4], 0.027; in [7], 0.048; in [8] it was 1.1; in data set [11] it was 1.9. For the same compound, the fraction unbound at 6 h, 2 µM in data set [13] was determined as 0.276; in data set [14], 0.696; in data set [15], 0.817; in data set [16] it was 0.667; in data set [17], 0.347; in [18], 1.
With `Cn1cnc(-c2ccc(O[C@H]3CCN(C(=O)Cc4ccc(OC(F)(F)F)cc4)C[C@@H]3F)c(C(N)=O)c2)c1`, the Ct in [1] was 69 ng/mL; in data set [5], 0.38 ng/mL; in data set [6], 6 ng/mL; in [9], 540 ng/mL; in data set [10], 100 ng/mL. Moreover, in data set [12], the Papp was 14 ×10⁻⁶ cm/s. The same compound gave a Cp in data set [2] of 76 ng/mL. Also, the Kp uu in [3] came out at 0.87; in data set [4], 0.21; in [7] it was 0.0018; in data set [8], 0.8; in data set [11] it was 4.4. Further, the fraction unbound at 6 h, 2 µM in data set [13] is 0.0611; in data set [14], 0.0393; in data set [15], 0.0645; in data set [16] it was 0.0378; in data set [17], 0.0216; in [18], 0.179.
As to `CN(C)C(=O)c1cc(CC(=O)O)ccc1NC(=O)c1ccccc1-c1ccc(C(F)(F)F)cc1`, the Ct stood at 21 ng/mL in data set [1]; 0.42 ng/mL in data set [5]; 5.7 ng/mL in data set [6]; 4200 ng/mL in [9]; 44 ng/mL in data set [10]. The Papp in data set [12] is 1.4 ×10⁻⁶ cm/s. Moreover, the Cp in data set [2] stood at 83 ng/mL. In addition, the Kp uu amounted to 0.21 in data set [3]; 0.1 in data set [4]; 0.0037 in data set [7]; 0.77 in [8]; 49 in data set [11]. Also, the fraction unbound at 6 h, 2 µM in data set [13] stood at 0.174; in data set [14], 0.205; in data set [15], 0.214; in data set [16], 0.311; in [17], 0.183; in data set [18] it was 0.309.
With `CC(=O)N1CCN(c2ccc(OCC3COC(Cn4ccnc4)(c4ccc(Cl)cc4Cl)O3)cc2)CC1` (centres undefined) [KETOCONAZOLE], the Papp in [12] worked out at 4.2 ×10⁻⁶ cm/s.
